The subject of data set [1] is MHV-A59. It is filed as cell-based, Murine hepatitis virus. Particulars: for IC50: DFMO pretreatment 4 days, CPX, DEF, GC7 24h.
For a further data set, the system named is SARS-CoV-2. It is filed as cell-based. The conditions noted are these: 5 mM DFMO, Vero-E6, MOI 0.1, 24 hpi.
Data set [2] deals with MHV. Description: MHV attachment assays. It is filed as cell-based, Murine hepatitis virus.
In the next data set the test system is cellular polyamines. Description: Thin-layer chromatography of cell-associated polyamines. It is filed as cell-based.
Data set [3] deals with MHV. Description: Direct incubation of MHV with compound, then titering. The conditions noted are these: 10 μM for 24h, then titered. Also noted: species or system Murine hepatitis virus.
In data set [4] the test system is MHV-A59. Description: Plaque size measurement with DFMO applied at time of infection. The class given is cell-based, Murine hepatitis virus.
In data set [5] the test system is SARS-CoV-2 pseudoparticles. The class given is cell-based. Particulars: DFMO-treated Vero-E6 cells.
Data set [6] deals with MHV-A59. It is filed as cell-based, Murine hepatitis virus.
The subject of another data set is HCoV-NL63. The data set is described as follows: HCoV-NL63 qPCR-based attachment assay on Vero-E6 cells. Particulars: DFMO-treated Vero-E6 cells. It is filed as cell-based. (In general: In qPCR the cycle at which signal appears reflects the starting amount.)
The next data set has as its system MERS-CoV. Particulars: in vitro, dose of 500 μM; cited from earlier work.

SMILES strings stand for the structures. Several values for one entry are separate records, joined by “and”; a condition that tells them apart may be missing. Equal entries are not always repeated. Entries after “also recorded” stand apart in the source; their conditions may differ. Where two headings read alike, the source gives them in different places.

As for `Cc1cc(C2CCCCC2)n(O)c(=O)c1` [CPX, ciclopirox], the “cytotoxicity” value with BHK-R cells is given as “cytotoxicity was minimal”. Further, the MHV replication result with MHV-A59 [1] was “significantly reduced MHV replication in a dose-dependent manner”.

Turning to `Cc1c(O)c(=O)ccn1C` [DEF, deferiprone], the “cytotoxicity” value with BHK-R cells is given as “cytotoxicity was minimal”. In addition, the MHV replication entry in the data set with MHV-A59 [1] is on record as “significantly reduced MHV replication in a dose-dependent manner”.

For `NCCCC(N)(C(=O)O)C(F)F` (stereo not shown) [DFMO, difluoromethylornithine], the “reduction of SARS-CoV-2 genomes” value in the data set with SARS-CoV-2 is reported as “greater than 50 fold”. In addition, in the data set with MHV [2], the “attachment and plaque formation” value is given as “significantly inhibited”; the “bound viral genomes (qRT-PCR)” value was “significantly reduced”. Also, in the data set on cellular polyamines (BHK-R cells), the “polyamine levels by TLC” value was “depleted polyamines”. For the same compound, the “polyamine levels by TLC” value with cellular polyamines (HeLa-R cells, DENSpm at 10 μM) was “reduced polyamines”. Also, the “polyamine levels by TLC” value in the data set on cellular polyamines (Vero-E6 cells, 750 μM to 5 mM DFMO) was “successfully depleted polyamines”. Further, in the data set with MHV [3], the “infectivity of MHV after direct incubation” value (from here on “infectivity of MHV”) is recorded as “titers were unchanged”. Further, the plaque size entry in the data set on MHV-A59 [4] (BHK-R cells, DFMO in overlay media at time of infection) is “no changes in plaque size”. Moreover, the plaque area result in the data set on MHV-A59 [4] (HeLa-R cells, DFMO at time of infection) is “small, though statistically insignificant change”. Also, in data set [5], the “cellular attachment of SARS-CoV-2 pseudoparticles” value is on record as “reduction in cellular attachment of SARS-CoV-2 pseudoparticles in a dose-dependent manner”. Besides, in the data set with MHV-A59 [1], the “MHV genome levels in supernatant (qPCR)” value was “reduced genome levels”, the “MHV production after repeated versus single dosing” value is listed as “repeated dosing is as effective as a single drug treatment”, the “MHV titers over several rounds of replication” value is reported as “reduced viral titers compared to no treatment group up to 72 h” and the “antiviral effect after drug removal” value is on record as “completely reversed”. Besides, in the data set on MHV-A59 [1], the “specific infectivity (genomes per PFU)” value is given as “increased the ratio of genomes to titer” and the IC50 came to 380 µM. Besides, in the data set on MHV-A59 [6], the IC50 is ~7 µM and 7 µM. Also, the HCoV-NL63 attachment entry with HCoV-NL63 is on record as “attachment was sensitive to DFMO treatment”. For the same compound, in the data set on MERS-CoV, the “sensitivity of MERS-CoV” value is “sensitive”. Moreover, in the data set with HeLa-R cells, the “toxicity” value was “not toxic to these cells”.

With `NCCCCCCCN=C(N)N` [GC7], the “cytotoxicity” value in the data set with BHK-R cells is reported as “cytotoxicity was minimal”. For the same compound, in the data set with MHV-A59 [1], the MHV replication result is listed as “significantly reduced MHV replication in a dose-dependent manner” and the IC50 turned out to be 7.4 µM.

For the compound `NCCCCN` [putrescine], the “infectivity of MHV” value with MHV [3] is recorded as “titers were unchanged”. Moreover, in the data set with MHV-A59 [1], the “effect of exogenous polyamine on MHV titers” value (from here on “effect of exogenous polyamine”) was “modestly reduced viral titers” and the “rescue of MHV replication in DFMO-treated cells” value (from here on “rescue of MHV replication”) is “rescued virus replication to untreated levels”.

For the compound `NCCCCNCCCN` [spermidine], the “infectivity of MHV” value in the data set with MHV [3] is given as “titers were unchanged”. Further, in the data set on MHV-A59 [1], the “effect of exogenous polyamine” value is recorded as “modestly reduced viral titers; also recorded: does not inhibit or restrict virus replication” and the “rescue of MHV replication” value is listed as “rescued virus replication to untreated levels”.

As for `NCCCNCCCCNCCCN` [spermine], the “cytotoxicity” value in the data set with BHK-R cells was “significant cytotoxicity”. In addition, in the data set with MHV [3], the “infectivity of MHV” value is “titers were unchanged”. For the same compound, in the data set with MHV-A59 [1], the “effect of exogenous polyamine” value is “modestly reduced viral titers; also recorded: reduces virus replication” and the “rescue of MHV replication” value is “rescued virus replication to untreated levels”.

As usually defined, the IC50 is the midpoint of a concentration-inhibition curve.

Values taken from article PMC7539557 (ACS infectious diseases, 2020).
